Data reported in ChEMBL document CHEMBL5375968, “Peptide TK-HR from the Skin of Chinese Folk Medicine Frog Hoplobatrachus Rugulosus Accelerates Wound Healing via the Activation of the Neurokinin-1 Receptor” (J Med Chem, 2023).
Active and inactive are the calls of the source. No cut-off for these calls is given here.

How the values were obtained:
Neutrophil [1] = experiment: Induction of chemotaxis in BALB/c mouse neutrophils assessed as increase in cell polarization measured for 15 mins by Zigmond-chamber based microscopy; format: functional; conditions: dose 5-40 µM
Neutrophil [2] = experiment: Induction of cell migration in Aprepitant-treated BALB/c mouse neutrophils at 5 to 40 uM incubated for 8 hrs by transwell migration assay; format: functional, cell-based; conditions: dose 5-40 µM
Neutrophil [3] = experiment: Induction of ROS production in BALB/c mouse neutrophils at 10 to 20 uM incubated for 2 hrs by DCFH-DA staining based analysis; format: functional, cell-based; conditions: dose 10-20 µM
Staphylococcus aureus = experiment: Antimicrobial activity against Staphylococcus aureus ATCC 25923 assessed as microbial growth inhibition at 100 uM; format: functional, organism-based
Cutibacterium acnes = experiment: Antimicrobial activity against Propionibacterium acnes ATCC 6919 assessed as microbial growth inhibition at 100 uM; format: functional, organism-based
Candida albicans = experiment: Antimicrobial activity against Candida albicans ATCC 10231 assessed as microbial growth inhibition at 100 uM; format: functional, organism-based
RAW264.7 [4] = experiment: Induction of phagocytosis in mouse RAW264.7 cells assessed as increase in neutral red dye uptake by measuring optical density at 540 nm at 10 uM incubated for 24 hrs followed by dye addition measured after 4 hrs by absorbance based assay (reference value: 0.073); format: functional; conditions: time 28 hrs
RAW264.7 [5] = experiment: Induction of phagocytosis in mouse RAW264.7 cells cultured with Escherichia coli ATCC 25922 assessed as number of engulfed bacteria at 20 uM incubated for 24 hrs followed by bacterial exposure measured after 1 hr by plate counting method (reference value: 225); format: functional; conditions: time 25 hrs
RAW264.7 [6] = experiment: (§1) Induction of phagocytosis in mouse RAW264.7 cells cultured with Escherichia coli ATCC 25922 assessed as number of surviving engulfed bacteria at 2.5 uM incubated for 24 hrs followed by bacterial exposure for 1 hr and further treated with gentamycin for 2 hrs by plate counting method (reference value: 37); format: functional; conditions: time 27 hrs
RAW264.7 [7] = experiment: as §1, with “10” for “2.5”; format: functional
RAW264.7 [8] = experiment: as §1, with “20” for “2.5”; format: functional
RAW264.7 [9] = experiment: Induction of IL-1beta expression in mouse RAW264.7 cells incubated for 24 hrs by ELISA; format: functional, cell-based; conditions: dose 2.5-20 µM
RAW264.7 [10] = experiment: Induction of TNF-alpha expression in mouse RAW264.7 cells incubated for 24 hrs by ELISA; format: functional, cell-based; conditions: dose 2.5-20 µM
RAW264.7 [11] = experiment: Effect on total p38 level in mouse RAW264.7 cells at 2.5 to 20 uM incubated for 4 hrs by Western blot analysis; format: functional, cell-based; conditions: dose 2.5-20 µM
HaCaT = experiment: Induction of cell migration in human HaCaT cells assessed as actin stress fiber formation at peripheral side of cytoplasmic membrane at 20 uM measured after 24 hrs by immunofluorescence microscopy; format: functional, cell-based
HUVEC [12] = experiment: Induction of cell migration in Aprepitant-treated HUVEC cells assessed as healing rate at 20 uM measured after 24 hrs by scratch healing assay (reference value: 30.2 %); format: functional, Homo sapiens
HUVEC [13] = experiment: Induction of cell migration in HUVEC cells assessed as formation of cytoplasmic protrusions at 20 uM measured after 24 hrs by immunofluorescence microscopy; format: functional, cell-based; conditions: Homo sapiens
Aorta = experiment: Ex vivo angiogenic activity in C57BL/6 mouse aortic ring assessed as increase in sprouting by measuring vessel outgrowth area at 20 uM measured for 7 days by microscopic analysis relative to control; format: functional; conditions: time 7 day
[14] = Induction of wound healing in BALB/c mouse model of full-thickness wounds at 50 ug/ml, TOP bid measured after 8 days (reference value: 81.0 %); format: functional; conditions: dose 50 µg/ml, time 8 day
[15] = Induction of wound healing in BALB/c mouse model of full-thickness wounds at 100 ug/ml, TOP bid measured after 2 days (reference value: 30.4 %); format: functional; conditions: dose 100 µg/ml, time 2 day
[16] = Induction of wound healing in BALB/c mouse model of full-thickness wounds at 200 ug/ml, TOP bid measured after 2 days (reference value: 30.4 %); format: functional; conditions: dose 200 µg/ml, time 2 day
[17] = Toxicity in BALB/c mouse model of full-thickness wounds assessed as adverse effect on body weight at 50 to 200 ug/ml, TOP bid measured upto 8 days; conditions: in vivo, topical_or_ocular, 192 h, dose 50-200 µg/ml, time < 8 day
[18] = Toxicity in BALB/c mouse model of full-thickness wounds assessed as inflammatory foci in spleen at 200 ug/ml, TOP bid measured upto 8 days by H and E staining based analysis; format: tissue-based; conditions: in vivo, topical_or_ocular, 192 h, dose 200 µg/ml, time < 8 day
[19] = Induction of wound healing in BALB/c mouse model of full-thickness wounds at 50 ug/ml, TOP bid pretreated with Aprepitant for 2 hrs followed by compound administration measured after 4 days (reference value: 50.6 %); format: functional; conditions: dose 50 µg/ml, time 4 day
Splenic fibroblast = experiment: Effect on cell proliferation in human […] fibroblasts at 5 to 40 uM incubated for 24 hrs by MTT assay; format: functional, cell-based; conditions: dose 5-40 µM
NIH3T3 = experiment: Effect on cell migration in mouse 3T3 cells at 20 uM incubated upto 48 hrs by scratch healing assay; format: functional, cell-based
[20] = Induction of wound healing in BALB/c mouse model of full-thickness wounds assessed as alpha-SMA level below wound surface at 50 to 200 ug/ml, TOP bid measured after 8 days by IHC analysis (reference value: 16.4 %); format: functional; conditions: dose 50-200 µg/ml, time 8 day, at 50 to 200 µg/mL
Mus musculus [21] = species on record: Mus musculus; experiment: Induction of wound healing in BALB/c mouse model of full-thickness wounds assessed as increase in phosphorylated Smad3 level in wound skin at 50 to 200 ug/ml, TOP bid measured after 4 days by Western blot analysis; format: functional; conditions: dose 50-200 µg/ml, time 4.0 day
Mus musculus [22] = species on record: Mus musculus; experiment: Induction of wound healing in BALB/c mouse model of full-thickness wounds assessed as increase in ratio of phosphorylated Smad3 level to total Smad3 level in wound skin at 50 to 200 ug/ml, TOP bid measured after 8 days by Western blot analysis; format: functional; conditions: dose 50-200 µg/ml, time 8.0 day
[23] = Induction of wound healing in BALB/c mouse model of full-thickness wounds assessed as recruitment of M1-type macrophages in wound skin at 50 ug/ml, TOP bid measured after 4 days by flow cytometry (reference value: 85.3 %); format: functional; conditions: dose 50 µg/ml, time 4 day
Mus musculus [24] = species on record: Mus musculus; experiment: Induction of wound healing in BALB/c mouse model of full-thickness wounds assessed as decrease in recruitment of M1-type macrophages in wound skin at 50 ug/ml, TOP bid measured after 4 days by IHC analysis; format: functional; conditions: dose 50.0 µg/ml, time 4.0 day
Mus musculus [25] = species on record: Mus musculus; experiment: Induction of wound healing in BALB/c mouse model of full-thickness wounds assessed as […] in IL-10 level in wound skin at 50 ug/ml, TOP bid measured after 2 days by ELISA; format: functional; conditions: dose 50.0 µg/ml, time 2.0 day
Mus musculus [26] = species on record: Mus musculus; experiment: Induction of wound healing in BALB/c mouse model of full-thickness wounds assessed as decrease in TNF-alpha level in wound skin at 50 ug/ml, TOP bid measured after 4 days by ELISA; format: functional; conditions: dose 50.0 µg/ml, time 4.0 day

H-KPNPDRFYGLM-NH2
Activity (Neutrophil [1]): Dose-Dependent Effect | Activity (Neutrophil [2]): inactive | Activity (Neutrophil [3]): Active | Activity (Staphylococcus aureus): inactive | Activity (Cutibacterium acnes): inactive | Activity (Candida albicans): inactive | OD (RAW264.7 [4]): 0.107 | Activity (RAW264.7 [5]): 350 | Activity (RAW264.7 [6]): 30 | Activity (RAW264.7 [7]): 25 | Activity (RAW264.7 [8]): 20 | Activity (RAW264.7 [9]): Dose-Dependent Effect | Activity (RAW264.7 [10]): Dose-Dependent Effect | Activity (RAW264.7 [11]): inactive | Activity (HaCaT): Active | Activity (HUVEC [12]): 35.9% | Activity (HUVEC [13]): Active | Activity (Aorta): 193.8% | Activity [14]: 93.1% | Activity [15]: 46.6% | Activity [16]: 52.8% | Activity [17]: Non-Toxic | Activity [18]: Non-Toxic | Activity [19]: 56.1% | Activity (Splenic fibroblast): inactive | Activity (NIH3T3): inactive | Activity [20]: 40.4% | Activity (Mus musculus [21]): Active | Activity (Mus musculus [22]): inactive | Activity [23]: 69.9% | Activity (Mus musculus [24]): Active | Activity (Mus musculus [25]): Active | Activity (Mus musculus [26]): Active
